# From US4762839A, “Quinazolinone copmpounds useful for the prophyloxis and treatment of diabetic complications” (priority 1985, dated 1988)
# Where a name gives a salt, the structure may show the parent alone.
# How the values were obtained:
# ddY male mice = assay: Acute toxicity and observation of symptoms; assay type: in vivo; conditions: for abnormal symptoms (dysbasia, areflexia, astasia, blepharoptosis, dyspnea, skin flush, lacrimation, etc.): mouse, in vivo, po; for mortality (acute toxicity): oral, suspension in 0.5% carboxymethyl cellulose, observed for 14 days, dose not given
# aldose reductase = biological target: T1, aldose reductase (Oryctolagus cuniculus, UniProt P15122); assay: Aldose reductase inhibitory activity; assay type: biochemical; conditions: aldose reductase from lens of male rabbit
# T1 construct: Aldose reductase was obtained from lens of male rabbit; from tissue; host or cells: lens of male rabbit (weighing 2.5-3.5 kg)
# Description: Aldose reductase was obtained from lens of male rabbit (weighing 2.5-3.5 kg) in the same manner as described in J. Biol. Chem., Vol. 240, 877-882 (1965). The inhibitory activity of the test compounds against the aldose reductase was measured in the same manner as described in Biochim. Biophys. Acta., Vol. 128, 474-482 (1966).
IC50 (aldose reductase) [nM],SMILES,"abnormal symptoms (dysbasia, areflexia, astasia, blepharoptosis, dyspnea, skin flush, lacrimation, etc.) (ddY male mice)",mortality (acute toxicity) (ddY male mice)
52,"CN1C(=O)Nc2ccc(Br)cc2C12NC(=O)NC2=O (stereo not shown) [Test Compound 6, 6-Bromo-3-methyl-spiro[1,2,3,4-tetrahydroquinazoline-4,4'-imidazolidine]-2,2',5'-trione]",,
74,"CN1C(=O)Nc2cc(Cl)c(Cl)cc2C12NC(=O)NC2=O (stereo not shown) [Test Compound 7, 6,7-Dichloro-3-methyl-spiro[1,2,3,4-tetrahydroquinazoline-4,4'-imidazolidine]-2,2',5'-trione]",,
270,"CC(C)CN1C(=O)N(C)C2(NC(=O)NC2=O)c2cc(Cl)ccc21 (stereo not shown) [Test Compound 10, 1-Isobutyl-6-chloro-3-methyl-spiro[1,2,3,4-tetrahydroquinazoline-4,4'-imidazolidine]-2,2',5'-trione]",,
10000,"CN1C(=O)NC2(C1=O)c1ccccc1NC(=O)N2C (stereo not shown) [Test Compound 11, 3,1'-Dimethyl-spiro[1,2,3,4-tetrahydroquinazoline-4,4'-imidazolidine]-2,2',5'-trione, reference compound]",,
> 50000,"CN1C(=O)N(C)C2(C1=O)c1ccccc1NC(=O)N2C (stereo not shown) [Test Compound 12, 3,1',3'-Trimethyl-spiro[1,2,3,4-tetrahydroquinazoline-4,4'-imidazolidine]-2,2',5'-trione, reference compound]",,

# The next lines start with the molecule.
SMILES,IC50 (aldose reductase) [nM],"abnormal symptoms (dysbasia, areflexia, astasia, blepharoptosis, dyspnea, skin flush, lacrimation, etc.) (ddY male mice)",mortality (acute toxicity) (ddY male mice)
"CN1C(=O)Nc2ccc(Cl)cc2C12NC(=O)NC2=O (stereo not shown) [Test Compound 1, 6-Chloro-3-methyl-spiro[1,2,3,4-tetrahydroquinazoline-4,4'-imidazolidine]-2,2',5'-trione]",56,there was not observed any abnormal symptom,no mouse died
"CN1C(=O)Nc2ccc(Cl)cc2C12NC(=O)NC2=O (stereo not drawn) [Test Compound 2, d-6-Chloro-3-methyl-spiro[1,2,3,4-tetrahydroquinazoline-4,4'-imidazolidine]-2,2',5'-trione]",22,there was not observed any abnormal symptom,no mouse died
"CN1C(=O)Nc2ccc(Cl)cc2C12NC(=O)NC2=O (stereo not shown) [Test Compound 3, 6-Chloro-3-methyl-spiro[1,2,3,4-tetrahydroquinazoline-4,4'-imidazolidine]-2,2',5'-trione-1'-sodium salt]",29,,
"Cc1cc2c(cc1Cl)C1(NC(=O)NC1=O)N(C)C(=O)N2 (stereo not shown) [Test Compound 5, 6-Chloro-3,7-dimethyl-spiro[1,2,3,4-tetrahydroquinazoline-4,4'-imidazolidine]-2,2',5'-trione]",30,,
